Reference: patent US11959096B2, “Methods for selective inhibition of pluripotent stem cells” (THE MEDICAL COLLEGE OF WISCONSIN, INC., priority 2014, dated 2024)

Assays:
[1] = SYTOX Green cell viability assay; type: cell-based, human; conditions: human, hiPSC (DF6-9-9T) cells
Description: (§1) In Vitro Toxicity Assays: Treatment with small molecules or glucose deprivation was initiated in hESC or hiPSC at 24 and 96 h post-plating and in vitro toxicity assays were performed at specified treatment endpoints 24-96 hours after treatment initiation. […] Neutral red assays for cell viability were performed as previously described. In vitro cell death was determined using SYTOX® Green nucleic acid stain (Life Technologies). Briefly, cells were incubated in 5 μM SYTOX® Green for 30 minutes at 37° C. in a humidified cell incubator with 5% CO2. Percent cell viability was determined by normalizing to replicate cells incubated with 120 μM digitonin (Sigma-Aldrich) and 5 μM SYTOX® Green. Imaging of cell viability was performed using Live/Dead® Viability/Cytotoxicity Kit, for mammalian cells (Life Technologies). Cells were stained for 20 minutes at room temperature with 4 μM Calcein AM to detect viable cells and 2 μM Ethidium Homodimer 1 to detect cells with compromised membranes. Representative images of alterations in cell morphology were acquired on confluent hPSC 24-72 hours after treatment initiation. Imaging was performed with a Nikon Ti-U inverted microscope.

[2] = tested on: hiPSC; experiment: Live/dead staining (calcein AM / ethidium homodimer-1); type: cell-based, human
Description: as §1

[3] = tested on: sub-confluent hiPSC; experiment: Glucose uptake assay ([3H]2-deoxyglucose); type: cell-based, human
Description: For 1 hour treatment, cells were placed in Krebs-Ringer Hepes (KRH) containing treatment at 37° C. in a humidified cell incubator with 5% CO2. For 15, 18, and 24 hour treatments, cells were treated in E8 medium for 14, 17, and 23 hours, respectively, at which point media was changed to KRH buffer containing specific treatment for 1 hour. After specified treatment time, glucose uptake was performed with 0.5 μCi [^3H]2-deoxyglucose for 5 min at 37° C. as previously described. Uptake data were normalized to protein concentration measured with Lowry method.

[4] = tested on: mesenchymal stem cells, fibroblasts, retinal pigmented epithelial cells, hiPSC-derived cardiomyocytes, specified hepatic endoderm cells, neural progenitors; type: cell-based; conditions: 2.5 μM for 72 hours
Description: (C) Human iPSC-derived neural progenitors were treated with 2.5 μM for 72 hours and assessed by MTT assay (top; day 10 and day 12 progenitors) and immunofluorescence (bottom; day 12 progenitors shown).
Viability measurements were consistent with these visual observations. See data for cardiomyocytes, neural progenitors, and fibroblasts in FIGS. 8B-C). […] See Boheler et al., Stem Cell Reports 3, 185-203 (2014).

[5] = tested on: ARPE-19; experiment: Viability and morphology of retinal pigmented epithelial cells; type: cell-based
From the text: Data expressed as mean+S.D. (n=4); p<0.05, **p<0.01, ***p<0.001. […] Data expressed as mean+S.D. (n=4), *p<0.05, **p<0.01, ***p<0.001.

[6] = tested on: DF6-9-9T hiPSC-derived cardiomyocytes; experiment: Neutral red viability assay in hiPSC-derived cardiomyocytes; type: cell-based; conditions: 24 hour pulse treatment
Description: as §1

[7] = tested on: day 10 cardiomyocytes derived from hiPSC (DF6-9-9T); experiment: Characterization of cardiomyocytes after STF-31 (contractility, flow cytometry, immunofluorescence, qPCR); type: cell-based, human
Description: Quantitative-real time PCR for TNNI3, Troponin T2 (TNNT2), and Homeobox protein Nkx-2.5 (NKX2-5) was performed as previously described using Taqman® Assays […] Cells were then fixed with 4% paraformaldehyde, permeabilized with 0.2% Triton-X, incubated with primary antibody for Troponin T (TNNT2) (Abcam: ab8295) overnight at 4° C. Cells were then incubated in secondary antibody goat anti-mouse IgG1-Alexa 568 (Life Tech: A-21124) and nuclei were detected with Hoechst 33342 (Life Tech: H21492). Cells were imaged with a Nikon Ti-U inverted microscope and Nikon Eclipse 90i confocal microscope.

[8] = tested on: sub-confluent hiPSC; experiment: Immunoblot analysis of p-AMPK, AMPK, cleaved caspase-3 and -9; type: cell-based, human; conditions: 2.5 μM STF-31, 30 μM WZB117
Description: Immunoblot Analysis: Non-adherent cells were collected by centrifugation, adherent cells were washed once with d-PBS and lysed in Laemmli buffer, combined with non-adherent cell pellet, and heated at 95° C. for 5 minutes. Protein concentration was measured using the Qubit protein assay (Life Technologies). 25 μg of total protein was separated by SDS-PAGE, transferred to nitrocellulose membrane (GE Healthcare Life Sciences) and blocked according to the manufacturer's instructions. Membranes were incubated overnight at 4° C. with the following dilutions of primary antibodies: rabbit anti-cleaved caspase-3 (1:500), rabbit anti-caspase-9 (1:1000), rabbit anti-phospho-AMPK (1:1000), and rabbit anti-AMPK (1:1,000) from Cell Signaling Technology, and mouse anti-GAPDH (1:10,000) from Life Technologies. Membranes were then incubated with secondary antibodies for 45 minutes at the following concentrations: donkey anti-mouse-horseradish peroxidase (1:5,000) and donkey anti-rabbit-horseradish peroxidase (1:7,000) from Jackson Immunoresearch Laboratories, Inc., followed by detection using enhanced chemiluminescence.

[9] = tested on: human fibroblasts; experiment: Neutral red viability assay in fibroblasts; type: cell-based; conditions: 24 hour treatment, 100 μM
[10] = tested on: sub-confluent hiPSC; experiment: Cleaved caspase-3/7 fluorescence based assay; type: cell-based, human; conditions: after initiation of treatment; 2.5 μM STF-31, 30 μM WZB117
[11] = tested on: human fibroblasts; conditions: treatment time extended to 72 hours; previous report [19]; cited from earlier work
[12] = 5 μM 24 hour pulse, 72 hours after treatment initiation

## CC(C)(C)c1ccc(S(=O)(=O)NCc2ccc(C(=O)Nc3cccnc3)cc2)cc1 [STF-31, 4-[[[[4-(1,1-Dimethylethyl)phenyl]sulfonyl]amino]methyl]-N-3-pyridinyl-benzamide]
[1]
  viability at 72 h, 2.5 μM: 10%
[2]; 48 hours, 2.5 μM STF-31
  live/dead staining: small patches of live cells remained
[2]; 72 hours, confluent, 2.5 μM STF-31, 30 μM WZB117, 20 μM PluriSIn
  live/dead staining: not visible
[3]; 2.5 μM STF-31
  first time point with decrease in glucose uptake: 18 h
[3]; 1 hour of treatment, 2.5 μM STF-31, 30 μM WZB117
  decrease in glucose uptake: did not alter glucose uptake
[4]
  visible changes in morphology or cell death: None of these cell types exhibited visible changes in morphology or obvious cell death
[5]; 2.5 μM for up to 72 hours
  ARPE cell morphology or viability: no adverse effects
[5]; short term treatment (24 hours), 2.5 μM
  toxicity: does not result in significant toxicity
[5]; treatment time extended to 72 hours, data not shown
  cell viability: did not result in a decrease in cell viability
[6]
  LD50: 40 µM
  LD50 cardiomyocytes relative to hiPSC: 22 fold
[7]; 5 μM 24 hour pulse, 24-72 hours after initiation
  expression of cardiac genes (q-PCR): not significantly altered
[7]; [12]
  abundance of cardiac markers TNNI3 and IRX4 (flow cytometry): did not affect abundance
  structural organization of TNNT2: maintained comparable structural organization
[7]; 5 μM for 24 hours, day 10 cardiomyocytes
  cardiomyocyte spontaneous contractility: did not affect cardiomyocyte spontaneous contractility
[7]; treated on day 5 and day 10 of differentiation
  contractions, protein and mRNA levels of cardiomyocyte markers, structural features compared with controls: indistinguishable from controls
[8]
  time at which cleaved caspase-3 and -9 are observed: significantly later
[8]; post-treatment
  time at which p-AMPK is detected/increased: 24 h
[9]
  reduction of fibroblast viability: 30%
[10]
  time of induction of caspase-3/7 activity: 24 h
[11]
  cell viability: did not result in a decrease in cell viability
